Source: patent US8614242B2, “1-(heterocyclic carbonyl)-2-substituted pyrrolidines” (Bayer Intellectual Property GmbH, priority 2010, dated 2013)

Key:
[1] = logP by HPLC on reversed-phase column (EEC Directive 79/831 Annex V.A8); type: physicochemical; settings: HPLC on reversed-phase column (C 18), 40° C., 0.1% aqueous formic acid and acetonitrile, linear gradient 10% to 90% acetonitrile
Method: In table 1, the logP values were determined in accordance with EEC Directive 79/831 Annex V.A8 by HPLC (High Performance Liquid Chromatography) on a reversed-phase column (C 18), using the method described below: Temperature: 40° C.; Mobile phases: 0.1% aqueous formic acid and acetonitrile; linear gradient from 10% acetonitrile to 90% acetonitrile. Calibration was carried out using unbranched alkan-2-ones (comprising 3 to 16 carbon atoms) with known logP values (determination of the logP values by the retention times using linear interpolation between two successive alkanones). lambda-max-values were determined using UV-spectra from 200 nm to 400 nm and the peak values of the chromatographic signals.

Sphaerotheca fuliginea = assay: In vivo preventive test on Sphaerotheca fuliginea (cucumber); settings: 500 ppm of active ingredient, evaluated 7 days after inoculation
Alternaria solani = assay: In vivo preventive test on Alternaria solani (tomato); settings: 500 ppm of active ingredient, evaluated 7 days after inoculation
Method: The plants remain for one day in an incubation cabinet at approximately 22° C. and a relative atmospheric humidity of 100%. Then the plants are placed in an incubation cabinet at approximately 20° C. and a relative atmospheric humidity of 96%.

Pyrenophora teres = assay: In vivo preventive test on Pyrenophora teres (barley); settings: 500 ppm of active ingredient, evaluated 7-9 days after inoculation
Method: The plants remain for 48 hours in an incubation cabinet at 22° C. and a relative atmospheric humidity of 100%.

Row | Compound | logP [1] | Efficacy (Sphaerotheca fuliginea) [%] | Efficacy (Alternaria solani) [%] | Efficacy (Pyrenophora teres) [%]
1 | Cn1nc(C(F)F)c(C(=O)N2CCCC2c2ccc(Cl)cc2Cl)c1F (centres unmarked) [Example 22] | 3.44 | 91 | 100 | 95
2 | Cn1nc(C(F)F)c(C(=O)N2CCCC2c2cc3ccccc3s2)c1Cl (centres unmarked) [Example 49] | 3.25 | – | – | 95
3 | Cn1nc(C(F)F)c(C(=O)N2CCCC2c2cccc(Br)c2)c1Cl (centres unmarked) [Example 33] | 3.06 | – | 95 | 100
4 | Cn1nc(C(F)F)c(C(=O)N2CCCC2c2ccccc2C(F)(F)F)c1Cl (centres unmarked) [Example 14] | 3.19 | – | 95 | 90
5 | Cn1nc(C(F)F)c(C(=O)N2CCCC2c2ccc(Cl)c(Cl)c2)c1F (centres unmarked) [Example 26] | 3.23 | 95 | 95 | 100
6 | Cn1nc(C(F)F)c(C(=O)N2CCCC2c2cc(Cl)cc(Cl)c2)c1Cl (centres unmarked) [Example 27] | 3.50 | 70 | 95 | 95
7 | Cn1nc(C(F)F)c(C(=S)N2CCCC2Cc2ccccc2Cl)c1F (racemic) [Example 61] | 3.83 | 95 | 100 | 100
8 | Cn1nc(C(F)F)c(C(=O)N2CCCC2c2ccc(C(F)(F)F)cc2)c1Cl (centres unmarked) [Example 20] | 3.25 | – | 70 | 70
9 | Cc1ccccc1C1CCCN1C(=O)c1c(C(F)F)nn(C)c1F (centres unmarked) [Example 2] | 2.75 | 95 | 90 | 100
10 | Cn1nc(C(F)F)c(C(=S)N2CCCC2c2ccc(Cl)cc2Cl)c1F (centres unmarked) [Example 24] | 4.09 | 95 | 90 | 100
11 | Cn1nc(C(F)F)c(C(=O)N2CCCC2c2ccccc2Cl)c1F (centres unmarked) [Example 6] | 2.90 | 90 | 100 | 100
12 | Cc1ccccc1C1CCCN1C(=O)c1c(C(F)F)nn(C)c1Cl (centres unmarked) [Example 1] | 2.90 | – | 80 | 80
13 | Cn1nc(C(F)F)c(C(=O)N2CCCC2c2ccc(Cl)c(Cl)c2)c1Cl (centres unmarked) [Example 25] | 3.37 | – | 95 | 95
14 | Cn1nc(C(F)F)c(C(=O)N2CCCC2c2ccc(Cl)cc2Cl)c1Cl (centres unmarked) [Example 23] | 3.57 | – | 95 | 100
15 | Cn1nc(C(F)F)c(C(=O)N2CCCC2c2cccnc2)c1F (centres unmarked) [Example 44] | 0.48 | – | – | –
16 | COc1ccccc1C1CCCN1C(=O)c1c(C(F)F)nn(C)c1F (centres unmarked) [Example 3] | 2.59 | – | 80 | –
17 | Cn1nc(C(F)F)c(C(=O)N2CCCC2c2ccc(Cl)cc2)c1Cl (centres unmarked) [Example 7] | 3.04 | – | 95 | 70
18 | Cn1nc(C(F)F)c(C(=O)N2CCCC2c2nc3ccccc3s2)c1F (centres unmarked) [Example 51] | 2.49 | – | – | 95
19 | COc1ccc(C2CCCN2C(=O)c2c(C(F)F)nn(C)c2F)cc1 (centres unmarked) [Example 4] | 2.42 | – | 80 | –
20 | CC(c1ccccc1Cl)C1CCCN1C(=O)c1c(C(F)F)nn(C)c1F (mixture of isomers) [Example 62] | 3.29 | – | – | –

Row | Compound | logP [1] | Efficacy (Sphaerotheca fuliginea) [%] | Efficacy (Alternaria solani) [%] | Efficacy (Pyrenophora teres) [%]
21 | Cn1nc(C(F)F)c(C(=S)N2CCCC2c2cccc(C(F)(F)F)c2)c1Cl (centres unmarked) [Example 19] | 3.79 | – | – | 100
22 | Cn1nc(C(F)F)c(C(=O)N2CCCC2c2ccc3c(c2)OCO3)c1F (centres unmarked) [Example 11] | 2.35 | – | – | 70
23 | Cn1nc(C(F)F)c(C(=O)N2CCCC2c2ccccc2Br)c1Cl (centres unmarked) [Example 31] | 3.09 | – | 90 | 95
24 | Cn1nc(C(F)F)c(C(=O)N2CCCC2c2ccc(-c3ccccc3)cc2)c1F (centres unmarked) [Example 29] | 3.50 | – | 95 | 100
25 | Cn1nc(C(F)F)c(C(=O)N2CCCC2c2ccco2)c1F (centres unmarked) [Example 42] | 2.13 | – | – | –
26 | Cn1nc(C(F)F)c(C(=O)N2CCCC2c2ccccc2Cl)c1Cl (centres unmarked) [Example 5] | 3.04 | – | 80 | 80
27 | Cn1nc(C(F)F)c(C(=O)N2CCCC2c2ccc(Cl)cc2)c1F (centres unmarked) [Example 8] | 2.90 | – | 100 | 100
28 | Cn1nc(C(F)F)c(C(=O)N2CCCC2c2cc3ccccc3s2)c1F (centres unmarked) [Example 48] | 3.11 | 93 | – | 100
29 | Cn1nc(C(F)F)c(C(=O)N2CCCC2c2ccccc2C(F)(F)F)c1F (centres unmarked) [Example 15] | 3.09 | – | 95 | 100
30 | Cn1nc(C(F)F)c(C(=O)N2CCCC2c2cccs2)c1F (centres unmarked) [Example 45] | 2.39 | – | 90 | 95
31 | Cn1nc(C(F)F)c(C(=O)N2CCCC2c2nc3ccccc3s2)c1Cl (centres unmarked) [Example 50] | 2.61 | – | – | –
32 | Cn1nc(C(F)F)c(C(=O)N2CCCC2c2ccccn2)c1F (centres unmarked) [Example 43] | 0.92 | – | – | –
33 | Cn1nc(C(F)F)c(C(=O)N2CCCC2c2cc(C(F)(F)F)cc(C(F)(F)F)c2)c1Cl (centres unmarked) [Example 40] | 3.79 | – | 95 | 95
34 | Cn1nc(C(F)F)c(C(=O)N2CCCC2c2cccc3ccccc23)c1F (centres unmarked) [Example 41] | 3.08 | 75 | – | 90
35 | Cn1nc(C(F)F)c(C(=O)N2CCCC2c2cnc3ccccc3c2)c1F (centres unmarked) [Example 46] | 1.50 | – | – | –
36 | Cn1nc(C(F)F)c(C(=O)N2CCCC2c2cc(F)cc(F)c2)c1Cl (centres unmarked) [Example 9] | 2.82 | – | – | 90
37 | Cn1nc(C(F)F)c(C(=O)N2CCCC2c2ccc(C(C)(C)C)cc2)c1Cl (centres unmarked) [Example 12] | 3.90 | – | 90 | 95
38 | Cn1nc(C(F)F)c(C(=O)N2CCCC2c2ccc3ncccc3c2)c1F (centres unmarked) [Example 47] | 1.14 | – | – | –
39 | Cn1nc(C(F)F)c(C(=O)N2CCCC2c2ccc(-c3ccccc3)cc2)c1Cl (centres unmarked) [Example 30] | 3.65 | – | – | 100

Second part, led by results:

Row | logP [1] | Compound | Efficacy (Sphaerotheca fuliginea) [%] | Efficacy (Alternaria solani) [%] | Efficacy (Pyrenophora teres) [%]
40 | 4.24 | Cn1nc(C(F)F)c(C(=O)N2CCCC2Cc2ccc(C(C)(C)C)cc2)c1F (racemic) [Example 68] | – | 94 | 100
41 | 3.87 | CC(c1ccc(Cl)cc1Cl)C1CCCN1C(=O)c1c(C(F)F)nn(C)c1F (mixture of isomers) [Example 71] | – | – | –
42 | 3.44 | Cn1nc(C(F)F)c(C(=O)N2CCC[C@H]2COc2ccc(Cl)cc2)c1Cl [Example 86] | – | – | –
43 | 3.50 | Cn1nc(C(F)F)c(C(=O)N2CCCC2Cc2c(Cl)cccc2Cl)c1Cl (racemic) [Example 75] | – | 90 | 100
44 | 3.39 | Cn1nc(C(F)F)c(C(=O)N2CCCC2Cc2ccc(Br)cc2)c1F (racemic) [Example 80] | 89 | 100 | 100
45 | 4.46 | Cn1nc(C(F)F)c(C(=S)N2CCCC2Cc2cccc(Cl)c2Cl)c1F (racemic) [Example 70] | – | 95 | 100
46 | 4.06 | CC(c1ccc(Cl)cc1Cl)C1CCCN1C(=O)c1c(C(F)F)nn(C)c1Cl (mixture of isomers) [Example 72] | – | – | –
47 | 3.76 | CC(c1cc(Cl)ccc1Cl)C1CCCN1C(=O)c1c(C(F)F)nn(C)c1F (mixture of isomers) [Example 73] | – | – | –
48 | 3.52 | CC(c1c(Cl)cccc1Cl)C1CCCN1C(=O)c1c(C(F)F)nn(C)c1F (mixture of isomers) [Example 78] | – | – | –
49 | 3.96 | CC(c1cc(Cl)ccc1Cl)C1CCCN1C(=O)c1c(C(F)F)nn(C)c1Cl (mixture of isomers) [Example 74] | – | – | –
50 | 3.52 | Cn1nc(C(F)F)c(C(=O)N2CCCC2Cc2cccc3ccccc23)c1F (racemic) [Example 83] | – | 100 | 100
51 | 3.29 | Cn1nc(C(F)F)c(C(=O)N2CCC[C@H]2COc2ccc(Cl)cc2)c1F [Example 85] | – | – | –
52 | 3.81 | CC(c1c(Cl)cccc1Cl)C1CCCN1C(=O)c1c(C(F)F)nn(C)c1Cl (mixture of isomers) [Example 79] | – | – | –
53 | 2.13 | Cn1nc(C(F)F)c(C(=O)N2CCCC2CS(=O)(=O)c2ccccc2)c1F (racemic) [Example 87] | – | – | –
54 | 3.46 | CC(c1ccccc1Cl)C1CCCN1C(=O)c1c(C(F)F)nn(C)c1Cl (mixture of isomers) [Example 63] | – | – | –
55 | 3.02 | Cn1nc(C(F)F)c(C(=O)N2CCCC2CCc2ccccc2)c1F (racemic) [Example 84] | – | 90 | 100
56 | 4.36 | Cn1nc(C(F)F)c(C(=O)N2CCC[C@H]2COc2c(Cl)cc(Cl)cc2Cl)c1Cl [Example 81] | 100 | – | –
57 | 2.20 | Cn1nc(C(F)F)c(C(=O)N2CCCC2CS(=O)(=O)c2ccccc2)c1Cl (racemic) [Example 88] | – | – | –
